Test results taken from publication PMC7070898 (Clinical and Translational Science, 2019).

Experiment: Safety and tolerability
Conditions: for Subjects with TEAEs: all evobrutinib doses pooled
[1] = one subject, 200 mg single dose, day 11
[2] = part 1 single dosing, pooled evobrutinib
[3] = part 2 multiple dosing, pooled evobrutinib

In the case of C=CC(=O)N1CCC(CNc2ncnc(N)c2-c2ccc(Oc3ccccc3)cc2)CC1 [evobrutinib], the “TEAE: Abdominal pain” value (SAD 100 mg, n = 6) is reported as 0 (0.0) n (%), (number of events), the “TEAE: Amylase increased” value (SAD 100 mg, n = 6) is reported as 0 (0.0) n (%), (number of events) and the “TEAE: Application site pruritus (due to ECG stickers)” value (from here on “TEAE: Application site pruritus”) (SAD 100 mg, n = 6) is reported as 0 (0.0) n (%), (number of events). The “TEAE: Back pain” value (SAD 100 mg, n = 6) was 0 (0.0) n (%), (number of events), the “TEAE: Contact dermatitis” value (SAD 100 mg, n = 6) was 0 (0.0) n (%), (number of events) and the “TEAE: Dizziness” value (SAD 100 mg, n = 6) was 0 (0.0) n (%), (number of events). For the same compound, the “TEAE: Dry eye” value (SAD 100 mg, n = 6) was 0 (0.0) n (%), (number of events), the “TEAE: Dry mouth” value (SAD 100 mg, n = 6) was 0 (0.0) n (%), (number of events) and the “TEAE: Dyspepsia” value (SAD 100 mg, n = 6) was 0 (0.0) n (%), (number of events). The “TEAE: Excoriation” value (SAD 100 mg, n = 6) was 0 (0.0) n (%), (number of events), the “TEAE: Headache” value (SAD 100 mg, n = 6) was 0 (0.0) n (%), (number of events) and the “TEAE: Lipase increased” value (SAD 100 mg, n = 6) was 0 (0.0) n (%), (number of events). The “TEAE: Multiple injuries” value (SAD 100 mg, n = 6) was 0 (0.0) n (%), (number of events), the “TEAE: Nasal congestion” value (SAD 100 mg, n = 6) was 1 (16.7) (1) n (%), (number of events) and the “TEAE: Noncardiac chest pain” value (SAD 100 mg, n = 6) was 0 (0.0) n (%), (number of events). The “TEAE: Odynophagia” value (SAD 100 mg, n = 6) was 0 (0.0) n (%), (number of events), the “TEAE: Overall total” value (SAD 100 mg, n = 6) was 1 (16.7) (1) n (%), (number of events) and the “TEAE: URTI” value (SAD 100 mg, n = 6) was 0 (0.0) n (%), (number of events). The “TEAE: Abdominal pain” value (SAD 200 mg, n = 6) was 0 (0.0) n (%), (number of events), the “TEAE: Amylase increased” value (SAD 200 mg, n = 6) was 1 (16.7) (1) n (%), (number of events) and the “TEAE: Application site pruritus” value (SAD 200 mg, n = 6) was 0 (0.0) n (%), (number of events). The “TEAE: Back pain” value (SAD 200 mg, n = 6) was 0 (0.0) n (%), (number of events), the “TEAE: Contact dermatitis” value (SAD 200 mg, n = 6) was 0 (0.0) n (%), (number of events) and the “TEAE: Dizziness” value (SAD 200 mg, n = 6) was 1 (16.7) (1) n (%), (number of events). The “TEAE: Dry eye” value (SAD 200 mg, n = 6) was 0 (0.0) n (%), (number of events), the “TEAE: Dry mouth” value (SAD 200 mg, n = 6) was 0 (0.0) n (%), (number of events) and the “TEAE: Dyspepsia” value (SAD 200 mg, n = 6) was 0 (0.0) n (%), (number of events). The “TEAE: Excoriation” value (SAD 200 mg, n = 6) was 1 (16.7) (1) n (%), (number of events), the “TEAE: Headache” value (SAD 200 mg, n = 6) was 0 (0.0) n (%), (number of events) and the “TEAE: Lipase increased” value (SAD 200 mg, n = 6) was 1 (16.7) (1) n (%), (number of events). For the same compound, the “TEAE: Multiple injuries” value (SAD 200 mg, n = 6) was 0 (0.0) n (%), (number of events), the “TEAE: Nasal congestion” value (SAD 200 mg, n = 6) was 0 (0.0) n (%), (number of events) and the “TEAE: Noncardiac chest pain” value (SAD 200 mg, n = 6) was 0 (0.0) n (%), (number of events). For the same compound, the “TEAE: Odynophagia” value (SAD 200 mg, n = 6) was 0 (0.0) n (%), (number of events), the “TEAE: Overall total” value (SAD 200 mg, n = 6) was 2 (33.3) (4) n (%), (number of events) and the “TEAE: URTI” value (SAD 200 mg, n = 6) was 0 (0.0) n (%), (number of events). For the same compound, the “TEAE: Abdominal pain” value (SAD 350 mg, n = 6) was 0 (0.0) n (%), (number of events), the “TEAE: Amylase increased” value (SAD 350 mg, n = 6) was 0 (0.0) n (%), (number of events) and the “TEAE: Application site pruritus” value (SAD 350 mg, n = 6) was 0 (0.0) n (%), (number of events). For the same compound, the “TEAE: Back pain” value (SAD 350 mg, n = 6) was 0 (0.0) n (%), (number of events), the “TEAE: Contact dermatitis” value (SAD 350 mg, n = 6) was 0 (0.0) n (%), (number of events) and the “TEAE: Dizziness” value (SAD 350 mg, n = 6) was 0 (0.0) n (%), (number of events). For the same compound, the “TEAE: Dry eye” value (SAD 350 mg, n = 6) was 0 (0.0) n (%), (number of events), the “TEAE: Dry mouth” value (SAD 350 mg, n = 6) was 0 (0.0) n (%), (number of events) and the “TEAE: Dyspepsia” value (SAD 350 mg, n = 6) was 0 (0.0) n (%), (number of events). For the same compound, the “TEAE: Excoriation” value (SAD 350 mg, n = 6) was 0 (0.0) n (%), (number of events), the “TEAE: Headache” value (SAD 350 mg, n = 6) was 0 (0.0) n (%), (number of events) and the “TEAE: Lipase increased” value (SAD 350 mg, n = 6) was 0 (0.0) n (%), (number of events). The “TEAE: Multiple injuries” value (SAD 350 mg, n = 6) was 1 (16.7) (1) n (%), (number of events), the “TEAE: Nasal congestion” value (SAD 350 mg, n = 6) was 0 (0.0) n (%), (number of events) and the “TEAE: Noncardiac chest pain” value (SAD 350 mg, n = 6) was 0 (0.0) n (%), (number of events). For the same compound, the “TEAE: Odynophagia” value (SAD 350 mg, n = 6) was 0 (0.0) n (%), (number of events), the “TEAE: Overall total” value (SAD 350 mg, n = 6) was 1 (16.7) (1) n (%), (number of events) and the “TEAE: URTI” value (SAD 350 mg, n = 6) was 0 (0.0) n (%), (number of events). The “TEAE: Abdominal pain” value (SAD 500 mg, n = 6) was 0 (0.0) n (%), (number of events), the “TEAE: Amylase increased” value (SAD 500 mg, n = 6) was 0 (0.0) n (%), (number of events) and the “TEAE: Application site pruritus” value (SAD 500 mg, n = 6) was 0 (0.0) n (%), (number of events). For the same compound, the “TEAE: Back pain” value (SAD 500 mg, n = 6) was 0 (0.0) n (%), (number of events), the “TEAE: Contact dermatitis” value (SAD 500 mg, n = 6) was 0 (0.0) n (%), (number of events) and the “TEAE: Dizziness” value (SAD 500 mg, n = 6) was 0 (0.0) n (%), (number of events). For the same compound, the “TEAE: Dry eye” value (SAD 500 mg, n = 6) was 1 (16.7) (1) n (%), (number of events), the “TEAE: Dry mouth” value (SAD 500 mg, n = 6) was 0 (0.0) n (%), (number of events) and the “TEAE: Dyspepsia” value (SAD 500 mg, n = 6) was 0 (0.0) n (%), (number of events). The “TEAE: Excoriation” value (SAD 500 mg, n = 6) was 0 (0.0) n (%), (number of events), the “TEAE: Headache” value (SAD 500 mg, n = 6) was 1 (16.7) (1) n (%), (number of events) and the “TEAE: Lipase increased” value (SAD 500 mg, n = 6) was 0 (0.0) n (%), (number of events). The “TEAE: Multiple injuries” value (SAD 500 mg, n = 6) was 0 (0.0) n (%), (number of events), the “TEAE: Nasal congestion” value (SAD 500 mg, n = 6) was 0 (0.0) n (%), (number of events) and the “TEAE: Noncardiac chest pain” value (SAD 500 mg, n = 6) was 0 (0.0) n (%), (number of events). For the same compound, the “TEAE: Odynophagia” value (SAD 500 mg, n = 6) was 1 (16.7) (1) n (%), (number of events), the “TEAE: Overall total” value (SAD 500 mg, n = 6) was 2 (33.3) (3) n (%), (number of events) and the “TEAE: URTI” value (SAD 500 mg, n = 6) was 0 (0.0) n (%), (number of events). For the same compound, the “TEAE: Abdominal pain” value (SAD pooled active, n = 36) was 0 (0.0) n (%), (number of events), the “TEAE: Amylase increased” value (SAD pooled active, n = 36) was 1 (2.8) (1) n (%), (number of events) and the “TEAE: Application site pruritus” value (SAD pooled active, n = 36) was 0 (0.0) n (%), (number of events). The “TEAE: Back pain” value (SAD pooled active, n = 36) was 1 (2.8) (1) n (%), (number of events), the “TEAE: Contact dermatitis” value (SAD pooled active, n = 36) was 2 (5.6) (2) n (%), (number of events) and the “TEAE: Dizziness” value (SAD pooled active, n = 36) was 1 (2.8) (1) n (%), (number of events). For the same compound, the “TEAE: Dry eye” value (SAD pooled active, n = 36) was 1 (2.8) (1) n (%), (number of events), the “TEAE: Dry mouth” value (SAD pooled active, n = 36) was 0 (0.0) n (%), (number of events) and the “TEAE: Dyspepsia” value (SAD pooled active, n = 36) was 1 (2.8) (1) n (%), (number of events). The “TEAE: Excoriation” value (SAD pooled active, n = 36) was 1 (2.8) (1) n (%), (number of events), the “TEAE: Headache” value (SAD pooled active, n = 36) was 2 (5.6) (3) n (%), (number of events) and the “TEAE: Lipase increased” value (SAD pooled active, n = 36) was 1 (2.8) (1) n (%), (number of events). The “TEAE: Multiple injuries” value (SAD pooled active, n = 36) was 1 (2.8) (1) n (%), (number of events), the “TEAE: Nasal congestion” value (SAD pooled active, n = 36) was 1 (2.8) (1) n (%), (number of events) and the “TEAE: Noncardiac chest pain” value (SAD pooled active, n = 36) was 0 (0.0) n (%), (number of events). The “TEAE: Odynophagia” value (SAD pooled active, n = 36) was 1 (2.8) (1) n (%), (number of events), the “TEAE: Overall total” value (SAD pooled active, n = 36) was 9 (25.0) (15) n (%), (number of events) and the “TEAE: URTI” value (SAD pooled active, n = 36) was 0 (0.0) n (%), (number of events). The nontolerated dose (after SAD or MAD administrations) was “no nontolerated dose could be defined”, the “Subjects with TEAEs” value (after multiple dosing) was 48.1% and the “Subjects with TEAEs” value (after single dosing) was 25%. The “toxicity grade of increased amylase” value [1] was 3 grade, the “toxicity grade of increased lipase (dose‐limiting TEAE)” value [1] was 4 grade and the “Subjects with contact dermatitis at locations of ECG pads” value [2] was 5.6%. The Subjects with headache [2] was 5.6%, the “severity of TEAEs” value (part 2 multiple dosing) was “All TEAEs reported were mild and no dose‐limiting adverse events were reported” and the Subjects with fatigue [3] was 7.4%. The “Subjects with gastrointestinal TEAEs” value [3] was 18.5%, the Subjects with headache [3] was 11.1% and the “Subjects with skin irritation due to ECG pads” value [3] was 7.4%. For the same compound, the “Subjects with upper respiratory tract infection” value [3] was 7.4% and the “deaths or treatment-related SAEs” value (parts 1 and 2) was “no deaths or SAEs related to treatment”.
